Test results reported in patent US10174312B2 (priority 2014, dated 2019).
Like-named read-outs stand apart in the source and are kept apart here. Starred links: 1 amine or outer side, 2 acyl side, 3 side chain; linkers in the order of their positions; H or OH if unused. Positions of bridges follow the written chain, without caps; N, C: chain ends. Non-standard residues stand in square brackets, D forms with d. Residues, ends and D or L forms follow the SMILES beside them. Chains are numbered I, II in the order given. Actinocin(9to1) = Cc1c2oc3c(C)ccc(C(=O)[*:1])c3nc-2c(C(=O)[*:2])c(N)c1=O; NMeV = CN[C@H](C(=O)O)C(C)C; Sar = CNCC(=O)O

Assays:
[1] = test system: pool of the S. pombe heterozygous deletion strain; assay type: cell-based, Schizosaccharomyces pombe; conditions: for growth inhibition effect on the strain (sampling errors confirmed, FIG. 3): 20 generation subculture, expected vs sampled generation
Description: In the course of 10 generation sub-culture and 20 generation sub-culture, OD600 was measured to confirm the doubling time. Then, pool fitness by doubling time (PFDT) was calculated by the below mathematical formula 2. […] PFDT=doubling time of the pool not-treated with the drug/doubling time of the pool treated with the drug [Mathematical Formula 2]

[2] = test system: S. pombe genome-wide heterozygous deletion strain; assay: Chemical-genetic profile by DNA chip array (S. pombe compendium, DI-HI / ecDT screening); assay type: cell-based, Schizosaccharomyces pombe
Source text: To make the genetic compendium of S. pombe heterozygous deletion strain pool, DNA was separated from the strain by the conventional method, followed by chip-hybridization to quantify the growth of the strain (S. E. Pierce, E. L. Fung, D. F. Jaramillo, et al., Nat. Methods 3 (2006) 601-603).
Then, a short DNA barcode sequence in 20 bp long (named “TAG”) was inserted in the complementary region of the genomic DNA, followed by amplification with universal primers for the flanking sequence. The amount of the amplified TAG was judged by the growth of each strain, which was quantified by using the DNA chip (Affymetrix, USA) constructed with the complementary sequence of TAG.
The result of the quantitative DNA chip array was not modified by background correction, normalization, or perfect match (PM) and the mean value was used as raw intensity (Iraw). The parameter for preprocessing the raw intensity was calculated by DNA chip array according to the conventional method informed to those in the art. To calculate the minimum value of the comparative fitness by saturated intensity, modification was performed according to the below mathematical formula 3. The normalized constant was applied to each analysis based on the modified raw intensity. For the modification, chip array was repeated 5 times with the glycerol stock deletion strain pool and the mean value was obtained. The normalized final intensity was log 2-transformed for after analysis. Icorrected=Iraw×exp(−Irawα) [Mathematical Formula 3]
In the mathematical formula 3, ‘Icorrected’ indicates the modified intensity; ‘Iraw’ indicates the raw intensity; and ‘α’ indicates the variable of modification function calculated with UPTAG and DNATAG which are 0.0003412759 and 0.0002767581 respectively.
Error model was calculated according to the conventional method in order to calculate the fitness score of the drug treated S. pombe heterozygous deletion strain.
The compendium of the drug competitive growth experiment was used as the reference set. […] N and the line of drugs of 1 . . . j . . . M. The average and variable of the reference set of each strain were calculated by the below mathematical formula 4.
Z-scores and p-values of the 4400 heterozygous deletion strains were obtained with 47 drugs. The amount of each strain was represented by UPTAG and DNTAG inserted in the upstream and the downstream of the gene that had been eliminated from each strain. To investigate the significance of p-value presenting the detect of the growth in the drug treated strain, the expected intensity of UPTAG and DNTAG in the strain was calculated by the mathematical formula 5. From the mean value thereof, Z-score presenting the statistical distance was obtained. The obtained Z-score was applied to error function or standard normal distribution according to the mathematical formula 6, and the growth detect of each strain was judged by p-value in the range of 0˜1.
The growth defect by the presence or absence of each drug was investigated by the method illustrated in the schematic diagram of FIG. 5 to judge whether the heterozygous deletion gene was haplo-insufficient (HI) or haplo-sufficient (HS).

[3] = test system: S. cerevisiae heterozygous deletion strain library; conditions: cited from earlier work
[4] = each drug at its Dose(M) of Table 2, 25° C.
[5] = each drug at its Dose(M) of Table 2, 25° C., PFDT = doubling time untreated pool / treated pool
[6] = second, lower dose 1.50E−08 M (Drug ID 67.2, 71.2)

Cc1c2oc3c(C)ccc(C(=O)N[C@@H]4C(=O)N[C@H](C(C)C)C(=O)N5CCC[C@H]5C(=O)N(C)CC(=O)N(C)[C@@H](C(C)C)C(=O)O[C@@H]4C)c3nc-2c(C(=O)N[C@@H]2C(=O)N[C@H](C(C)C)C(=O)N3CCC[C@H]3C(=O)N(C)CC(=O)N(C)[C@@H](C(C)C)C(=O)O[C@@H]2C)c(N)c1=O [Actinomycin D] (I: T[dV]P[Sar][NMeV] / II: T[dV]P[Sar][NMeV]; ester I:1-I:C, II:1-II:C; linker I:N-II:N via Actinocin(9to1))
growth inhibition effect on the strain (sampling errors confirmed, FIG. 3) [1]: growth inhibition effect | PF2DT: PFDT of the sample obtained from 20 generation subculture [1, 4]: 0.709 | PF1DT: PFDT of the sample obtained from 10 generation subculture [1, 5]: 0.650

C[C@H]1CCC/C=C/[C@@H]2C[C@H](O)C[C@H]2[C@H](O)/C=C/C(=O)O1 [Brefeldin A]
PF2DT: PFDT of the sample obtained from 20 generation subculture [1, 4]: 0.986 | PF1DT: PFDT of the sample obtained from 10 generation subculture [1, 5]: 0.973

Clc1ccccc1C(c1ccccc1)(c1ccccc1)n1ccnc1 [Clotrimazole]
−log (p) (Spo) ([2]; gene erg11, dose 0.1 μM): −13.15

C=C1[C@@H](C)[C@H]2[C@H](Cc3ccccc3)NC(=O)[C@]23OC(=O)/C=C/[C@H](O)CCC[C@@H](C)C/C=C/[C@H]3[C@@H]1O [Cytochalasin B]
PF2DT: PFDT of the sample obtained from 20 generation subculture [1, 4]: 0.785 | PF1DT: PFDT of the sample obtained from 10 generation subculture [1, 5]: 0.954

COc1ccc([C@@H]2Sc3ccccc3N(CCN(C)C)C(=O)[C@@H]2OC(C)=O)cc1.Cl [Dilitiazem hydrochloride]
PF2DT: PFDT of the sample obtained from 20 generation subculture [1, 4]: 0.890 | PF1DT: PFDT of the sample obtained from 10 generation subculture [1, 5]: 0.896

OCCN(CCO)c1nc(N2CCCCC2)c2nc(N(CCO)CCO)nc(N3CCCCC3)c2n1 [Dipyridamole]
growth inhibition effect on the strain (sampling errors confirmed, FIG. 3) [1]: growth inhibition effect

COc1cccc2c1C(=O)c1c(O)c3c(c(O)c1C2=O)C[C@@](O)(C(=O)CO)C[C@@H]3O[C@H]1C[C@H](N)[C@H](O)[C@H](C)O1 [Doxorubicin]
−log (p) (Spo) ([2]; gene rpa2, dose 24 μM): −15.09 | −log (p) (Spo) ([2]; gene vma1, dose 24 μM): −28.26 | −log (p) (Spo) ([2]; gene vma7, dose 24 μM): −6.287 | −log (p) (Sce) ([3]; gene RPA135, dose 62.5): −6.279 | −log (p) (Sce) ([3]; gene TFP1, dose 62.5): −8.374 | −log (p) (Sce) ([3]; gene VMA7, dose 62.5): −28.85

CCCCOc1ccc(C(=O)CCN2CCCCC2)cc1 [Dyclonine]
growth inhibition effect on the strain (sampling errors confirmed, FIG. 3) [1]: growth inhibition effect | −log (p) (Spo) ([2]; gene SPAC22F8.08, dose 68 μM): −12.19 | −log (p) (Spo) ([2]; gene SPCC1450.10c, dose 68 μM): −6.928 | −log (p) (Spo) ([2]; gene rpn12, dose 68 μM): −40.98 | −log (p) (Sce) ([3]; gene NAR1, dose 500): −4.84 | −log (p) (Sce) ([3]; gene RPN12, dose 500): −4.338 | −log (p) (Sce) ([3]; gene SEC24, dose 500): −6.632

CC[C@H]1OC(=O)[C@H](C)[C@@H](O[C@H]2C[C@@](C)(OC)[C@@H](O)[C@H](C)O2)[C@H](C)[C@@H](O[C@@H]2O[C@H](C)C[C@H](N(C)C)[C@H]2O)[C@](C)(O)C[C@@H](C)C(=O)[C@H](C)[C@@H](O)[C@]1(C)O [Erythromycin]
−log (p) (Spo) ([2]; gene SPAC688.09, dose 250 μM): −42.17 | −log (p) (Sce) ([3]; gene RIM2, dose 2.5 mg/ml): −4.63

O=C(CCCN1CCC(O)(c2ccc(Cl)cc2)CC1)c1ccc(F)cc1 [Haloperidol]
−log (p) (Spo) ([2]; gene fet5, dose 88.3 μM): −4.402 | −log (p) (Sce) ([3]; gene YLR243W, dose 125): −7.301

CN(Cc1cnc2nc(N)nc(N)c2n1)c1ccc(C(=O)N[C@@H](CCC(=O)O)C(=O)O)cc1 [Methotrexate]
−log (p) (Spo) ([2]; gene ssr2, dose 500 μM): −4.28 | −log (p) (Sce) ([3]; gene RSC8, dose 250): −4.275

CO[C@@]12[C@H](COC(N)=O)C3=C(C(=O)C(C)=C(N)C3=O)N1C[C@@H]1N[C@@H]12 [Mitomycin C]
PF2DT: PFDT of the sample obtained from 20 generation subculture [1, 4]: 0.756 | PF1DT: PFDT of the sample obtained from 10 generation subculture [1, 5]: 0.840 | −log (p) (Spo) ([2]; gene cdc10, dose 80 μM): −6.16 | −log (p) (Spo) ([2]; gene snf21, dose 80 μM): −4.022 | −log (p) (Sce) ([3]; gene SPC105, dose 1000): −14.52 | −log (p) (Sce) ([3]; gene STH1, dose 1000): −5.49 | −log (p) (Sce) ([3]; gene SWI6, dose 1000): −5.228

CN(C/C=C/C#CC(C)(C)C)Cc1cccc2ccccc12 [Terbinafine]
−log (p) (Spo) ([2]; S. pombe gene not printed (ortholog of RRP1), dose 0.03 μM): −6.1 | −log (p) (Spo) ([2]; gene erg1, dose 0.015 μM): −24.83 | −log (p) (Spo) ([2]; gene erg1, dose 0.03 μM): −49.77 | −log (p) (Sce) ([3]; gene ERG1, dose 2.5 ug/ml): −80.59 | −log (p) (Sce) ([3]; gene RRP1, dose 7.2 μM): −4.515

Cn1c(=O)c2[nH]cnc2n(C)c1=O [Theophylline anhydrous]
PF2DT: PFDT of the sample obtained from 20 generation subculture [1, 4]: 0.924 | PF1DT: PFDT of the sample obtained from 10 generation subculture [1, 5]: 0.887

Tunicamycin
PF2DT: PFDT of the sample obtained from 20 generation subculture [1, 4]: 1.027 | PF1DT: PFDT of the sample obtained from 10 generation subculture [1, 5]: 0.935 | PF1DT: PFDT of the sample obtained from 10 generation subculture [1, 6]: 0.954 | PF2DT: PFDT of the sample obtained from 20 generation subculture [1, 6]: 1.007 | −log (p) (Spo) ([2]; gene gpt2 heterozygous deletion, dose 0.03125 μM): −4.976 | −log (p) (Sce) ([3]; gene ALG7, dose 0.015 μM): −5.227 | −log (p) (Sce) ([3]; gene ALG7, dose 150 ng/mL): −24
